Key:
HIV-1 strain Ada-MR5 = assay: HIV-1 p24 production in infected activated PBMCs (ELISA); format: cell-based; conditions: stimulated PBMCs, supernatant 6 days post-infection, increasing concentrations
Text: FIG. 1. Potency of quinoline derivatives to inhibit HIV-1 production in PBMC- and macrophages-infected cells. […] Each point represents 6 donors. B) HIV-1 strain YU2 was used to infect triplicate of monocyte derived-macrophages from different donors in the absence or presence of increasing concentrations of Compound 22. […] Each point represents 8 donors.
Buffy coats from HIV-negative individuals were obtained from the local blood donation center in Zurich, Switzerland (http://www.blutspendezurich.ch/) and Centre de transfusion sanguine Montpellier. Human peripheral blood mononuclear cells (PBMCs) were isolated by Ficoll (Axis-Shield PoC AS) gradient centrifugation. The cells have then been cultivated at 37° C., 5% CO2 to a density of 1×10^6 cells/mL in RPMI Glutamax medium (Life Technologies Ref 61870-010) supplemented with 10% fetal calf serum (FCS) (Thermo Fischer Ref SV30160.03), 1000 U/mL of IL2 (Peprotech Ref 200-02) and 5 μg/mL of PHA (Roche Ref 1249738) for activation. Three days later, cells have been pooled and resuspended to a density of 1×10^6 cells/mL in RPMI Glutamax medium supplemented with 10% fetal calf serum (FCS) 1000 U/mL of IL-2 for infection. HIV-1 infection has been performed with 10 μg of Ada-M R5 HIV strain per mL of cells for 4 hours. […]
Cells were treated with 0.01 μM up to 30 μM and p24 antigen levels were monitored in culture supernatant over a 12 day period. […]

PBMCs = assay: Lymphocyte populations in treated PBMCs; format: cell-based, human; conditions: PBMCs under treatment
HIV-1 = test system: HIV-1
Procedure: Resistance to Compound 22 was tested on human PBMCs and compared to current therapies. […] Various classes of antiviral agents can affect the life cycle of HIV-1 in different manners. […] The selection of drug resistant mutants in vitro can be readily accomplished by maintaining the virus in a state of sub-optimal growth, regulated by slowly increasing the amount of drug pressure applied. This technique mimics the consequences of drug therapy in patients. Therefore, in this way, novel compounds can be assessed for their selection profile in order to evaluate the likelihood of emergence of HIV-1 drug resistance in future clinical trials. In addition, combinations of drugs can be investigated in the same manner.

HIV RNA splicing = assay: Sequence capture and 454 pyrosequencing of HIV RNA in infected PBMCs; format: cell-based, HIV-1
Procedure: To test whether Compound 22 influences the splicing of HIV RNA in infected cells, an array-based sequence capture was performed using a customized library probes targeting HIV sequences to get rid of cellular RNA. The probes were used to capture cDNAs prepared from infected treated and untreated PBMCs. After double capture, libraries were prepared and sequenced using 454 pyrosequencing (according to GS junior method manual). The average size of the reads around 400 bp allowed unambiguous assembly of viral genome from untreated sample (after 3 and 6 days of infection) using reads that were not mapped to human genome (hg19). All sequencing data were analysed using gsnap, as detailed in Wu et al. (Fast and SNP-tolerant detection of complex variants and splicing in short reads. Bioinformatics 26, 873-881 (2010)).

[1] = test system: HIV-1 strains (clade B, clade C and recombinants clades); assay: p24 inhibition in PBMCs infected with different HIV-1 strains (patient isolates); format: cell-based; conditions: 5 μM, 6 days pi, subtype B, C and recombinant viruses
Procedure: FIG. 2. HIV p24 inhibition of Compound 22 from different HIV-1 strains. A) Different HIV-1 strains (clade B, clade C and recombinants clades) were used to infect PBMCs from three different donors in the absence of presence of 5 μM of Compound 22. Supernatant was harvested 6 days pi and viral capsid protein p24 antigen was quantitated using standard ELISA protocol.

YU2 HIV-1 virus = assay: NSG humanized mice infected with YU2 HIV-1 virus, viral load; format: in vivo, mouse
Procedure: Viral load was assessed by measuring viral RNA using the Amplicor HIV-1 Monitor from Roche.
All manipulations of NSG-HIS mice were performed under laminar flow. Gavage of mice was performed daily with a stainless steel gavage needle (Straight 22 Gauge, 1.4 inch in length). […] Mice were monitored three times a week for symptoms or signs of adverse events, according to a standard score sheet.
Mice were infected intraperitoneally i.p. with JR-CSF, 1×10^3 TCID50 per mouse and HIV YU-2, 1×106 TCID50 per mouse. HIV RNA plasma levels were measured by RT-PCR (Amplicor HIV-1 test or AmpliPrep/COBAS TaqMan HIV-1 Test, Roche) at various times after infection.

primary macrophages = assay: Cell viability of treated primary macrophages; format: cell-based, human; conditions: macrophages under treatment (data not shown)
Procedure: To generate monocyte derived macrophages (MDMs), monocytes were isolated using CD14 microbeads (catalog no. 130-050-201; Miltenyi) and cultured in X-VIVO10 medium (Lonza) supplemented with GM-CSF 1000 U/ml and M-CSF 100 ng/ml for 6 days. Monocytes were seeded at a cell count of 50,000 cells per well in a 96 well plate. After 6 days medium was replaced with X-VIVO10 w/o Cytokines. After 2 days Macrophages were treated with Compound 22 and/or its N-glucuronide metabolite o/n and next day infected with Yu-2 virus for 6 hrs, washed with PBS and cultured in medium containing the compounds for 12 days. Supernatant for p24 Elisa was collected 2 times a week.

FC(F)(F)Oc1ccc(Nc2ccc3cccc(Cl)c3n2)cc1 [Compound 22, 8-chloro-N-(4-(trifluoromethoxy)phenyl)quinolin-2-amine]
inhibition of HIV-1 replication (p24 antigen) (HIV-1 strain Ada-MR5): dose dependent inhibition
populations of lymphocytes present in PBMCs (PBMCs): did not alter
genotoxicity (HIV-1; conclusion drawn from the mutation selection results): not genotoxic
Time of Selection (weeks) (HIV-1; human PBMCs, increasing drug pressure): 24 weeks
resistance-inducing mutations detected after treatment (HIV-1; treatment for at least 24 weeks): no resistance-inducing mutations detected
effect on spliced HIV RNA (HIV RNA splicing): favours spliced HIV RNA
coverage of viral genome (number of reads) (HIV RNA splicing; 3 days post infection): 4149 reads
reads corresponding to splice junctions (HIV RNA splicing; 3 days post-infection): 17.4%
number of reads (HIV RNA splicing; 6 days post-infection): 20 585
reads corresponding to splice junctions (HIV RNA splicing; 6 days post-infection): 13.3%
inhibitory effect on HIV-1 subtypes (p24) [1]: strong inhibitory effect
viral load during treatment (YU2 HIV-1 virus; 40 mg/kg daily, 30 days of treatment): reduced the viral load
time the viral load remained low after treatment termination (YU2 HIV-1 virus; after 30 days of treatment): at least 50 days
cell viability (primary macrophages): not decreased

Reference: patent US10806729B2, “Quinoline derivatives for use in the treatment or prevention of viral infection” (ABIVAX, priority 2015, dated 2020)
